These results are taken from PMC12720098, “Prolintane analogs as hybrid monoamine transporter ligands: Structural determinants and species differences” (The Journal of Biological Chemistry, 2025).

The target of one test is T1, rDAT (Rattus norvegicus, UniProt P23977).
T1 construct: As a means to evaluate transporter activity of prolintane analogs in native tissue preparation; from tissue; host or cells: rat caudate synaptosomes
Nature of the test: Uptake inhibition assay ([3H]dopamine) in rat brain synaptosomes. Type of test: biochemical. The settings on record: for DAT/SERT ratio: rat isoform (r), 1/DAT IC50 / 1/SERT IC50. How it is done: (§1) Rats were killed by CO2 narcosis and decapitated, then synaptosomes were prepared from brains using standard procedures. In brief, synaptosomes were prepared from caudate tissue for rat DAT (rDAT) assays, or from whole brain minus caudate and cerebellum for rat NET (rNET) and rat SERT (rSERT) assays. Brain tissue was homogenized in ice-cold 10% sucrose followed by centrifugation at 1000g for 10 min. The resulting supernatant containing crude synaptosomes was kept on ice until use in uptake or release procedures. Uptake inhibition and release assays were carried out as previously described ([62], [63]).
(§2) For uptake inhibition assays, 5 nM [^3H]dopamine, 10 nM [^3H]norepinephrine, or 5 nM [^3H]5-HT was used as the radiolabeled transmitter for rDAT, rNET, or rSERT, respectively. To optimize uptake for a single transporter, unlabeled blockers were included that prevented uptake of [^3H]transmitter by competing transporters: 50 nM GBR 12935 was added to NET and SERT assays to block DAT, 100 nM nomifensine was added to SERT assays to block NET. Uptake assays were initiated by adding 100 μl of tissue to 900 μl Krebs-phosphate buffer (126 mM NaCl, 2.4 mM KCl, 0.83 mM CaCl2, 0.8 mM MgCl2, 0.5 mM KH2PO4, 0.5 mM Na2SO4, 11.1 mM glucose, 0.05 mM pargyline, 1 mg/ml bovine serum albumin, and 1 mg/ml ascorbic acid, pH 7.4) containing test drug and [^3H]transmitter. Uptake assays were terminated by rapid vacuum filtration, and retained radioactivity was quantified with liquid scintillation counting.
(§3) Effects of test drugs on release and uptake inhibition were analyzed by nonlinear regression using GraphPad Prism 9 (GraphPad Scientific, San Diego, CA, USA). Concentration–response values for the uptake inhibition and release were fit to the equation, Y(x)=Ymin+Ymax−Ymin/1+10^((LogP50−LogX)·n) , where x is the concentration of the compound tested, Y(x) is the response measured, Ymax is the maximal response, P50 is either IC50 (the concentration that yields half-maximal uptake inhibition response) or EC50 (the concentration that yields half-maximal release response), and n is the Hill slope parameter.

The next test addresses T2, hDAT (Homo sapiens, UniProt Q01959).
T2 construct: expressed in transfected cells
The test can be described thus: Uptake inhibition assay ([3H]DA) in transfected HEK293 cells. Particulars: for DAT/SERT ratio: human isoform (h), 1/DAT IC50 / 1/SERT IC50. Type of test: cell-based. How it is done:
HEK293 cells stably expressing human monoamine transporters hSERT, hDAT or hNET were seeded into poly-D-lysine (PDL) coated 96-well plates with a density of approximately 36,000 cells per well 1 day prior to experiments. A day after seeding, the cell medium was replaced with 200 μl Krebs-HEPES-buffer (KHB; 120 mM NaCl, 3 mM KCl, 2 mM CaCl2·2H2O, 2 mM MgCl2·6H2O, 20 mM D-glucose, pH = 7.3). The test drugs were initially dissolved in Milli-Q H2O or dimethyl sulfoxide (DMSO) at a concentration of 10 to 100 mM. Then, cells were treated with the respective concentration of the test drug diluted in KHB for 5 min as a pre-incubation step. Subsequently, in the uptake step, the solution was replaced with 50 μl/well diluted drug solution and tritiated substrate (hDAT: 0.1 μM [^3H]DA; hNET: 0.02 μM [^3H]MPP^+; hSERT: 0.1 μM [^3H]5-HT) for 1 min (hDAT, hSERT) or 3 min (hNET). After incubation, cells were immediately washed with 200 μl KHB to stop uptake. Uptake was indirectly measured by quantifying beta emission with liquid scintillation counting (Wallac 1450 MicroBeta TriLux Liquid Scintillation Counter & Lumi; GMI). Therefore, 200 μl Ultima Gold XR scintillation cocktail (PerkinElmer, MA, USA) was added to each well.
Half-maximal inhibitory concentrations (IC50) were obtained from fitting a sigmoidal dose–response ( Y=Bottom+Top−Bottom/1+10^((LogIC50−X)·HillSlope) ) in GraphPad Prism 10.3.1 (GraphPad Software Inc.). Uptake inhibition data were evaluated by one-way ANOVA followed by Tukey's multiple comparisons test. Release data were analyzed using a two-way ANOVA (batch release) or a mixed-effects model with Geisser-Greenhouse correction (time-dependent traces) employing Šidák correction for comparing differences between compounds with or without the addition of monensin.

The next test concerns the target T3, hSERT (Homo sapiens, UniProt P31645).
T3 construct: expressed in transfected cells
Type of test: cell-based. The settings on record: for Mean of normalized currents elicited through hSERT by drug application: normalized to 10 µM 5-HT current. The procedure: One day prior to recording, either native HEK293 cells or HEK293 cells stably expressing monoamine transporters were seeded at low density onto PDL-coated 35 mm dishes. Patch-clamp experiments were conducted at a holding potential of −60 mV, with substrate-induced currents recorded at room temperature (20–24 °C) using an […] amplifier and pClamp 11.2 software (MDS Analytical Technologies). During recordings, cells were continuously superfused via a DAD-12 perfusion system and an 8-tube manifold (ALA Scientific Instruments), delivering an external solution composed of 140 mM NaCl, 2.5 mM CaCl2, 3 mM KCl, 2 mM MgCl2, 20 mM glucose, and 10 mM HEPES, with pH adjusted to 7.3 using NaOH. The intracellular pipette solution, designed to mimic physiological ionic conditions, contained 133 mM potassium gluconate, 5.9 mM NaCl, 1 mM CaCl2, 0.7 mM MgCl2, 10 mM HEPES, and 10 mM EGTA, with pH set to 7.2 using KOH. Currents were filtered at 1 kHz and digitized at 10 kHz via a Digidata 1550 digitizer (MDS Analytical Technologies), followed by analysis in Clampfit 10.2 (Molecular Devices). Substance-induced currents were normalized to the current elicited by a saturating concentration of 5-HT (10 μM) of the same cell. Holding currents were subtracted, and a 50 Hz digital Gaussian low-pass filter was applied to the traces for further analysis.

Another test concerns the target T4, rNET (Rattus norvegicus, UniProt Q63380).
T4 construct: As a means to evaluate transporter activity of prolintane analogs in native tissue preparation; from tissue; host or cells: rat brain synaptosomes (whole brain minus caudate and cerebellum)
Nature of the test: Uptake inhibition assay ([3H]norepinephrine) in rat brain synaptosomes. Type of test: biochemical. How it is done:
as §1, §2, §3

T1 sequence (P23977 whole entry): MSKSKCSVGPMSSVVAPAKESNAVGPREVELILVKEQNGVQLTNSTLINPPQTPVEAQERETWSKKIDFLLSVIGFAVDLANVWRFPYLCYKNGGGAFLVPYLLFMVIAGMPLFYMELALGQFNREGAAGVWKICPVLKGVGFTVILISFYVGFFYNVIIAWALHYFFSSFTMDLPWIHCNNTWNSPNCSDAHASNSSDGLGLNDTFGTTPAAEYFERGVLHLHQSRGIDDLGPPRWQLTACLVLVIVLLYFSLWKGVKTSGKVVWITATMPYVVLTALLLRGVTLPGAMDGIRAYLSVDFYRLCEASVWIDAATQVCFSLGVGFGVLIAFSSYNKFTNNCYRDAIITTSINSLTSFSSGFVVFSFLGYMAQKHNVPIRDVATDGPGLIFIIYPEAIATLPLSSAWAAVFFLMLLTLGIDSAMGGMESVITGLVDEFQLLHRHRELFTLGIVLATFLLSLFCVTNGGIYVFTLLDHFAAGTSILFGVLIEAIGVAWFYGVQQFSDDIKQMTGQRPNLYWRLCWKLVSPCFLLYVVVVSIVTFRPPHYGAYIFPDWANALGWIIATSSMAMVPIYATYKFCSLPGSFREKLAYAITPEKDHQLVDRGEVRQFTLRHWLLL
T3 sequence (P31645 whole entry): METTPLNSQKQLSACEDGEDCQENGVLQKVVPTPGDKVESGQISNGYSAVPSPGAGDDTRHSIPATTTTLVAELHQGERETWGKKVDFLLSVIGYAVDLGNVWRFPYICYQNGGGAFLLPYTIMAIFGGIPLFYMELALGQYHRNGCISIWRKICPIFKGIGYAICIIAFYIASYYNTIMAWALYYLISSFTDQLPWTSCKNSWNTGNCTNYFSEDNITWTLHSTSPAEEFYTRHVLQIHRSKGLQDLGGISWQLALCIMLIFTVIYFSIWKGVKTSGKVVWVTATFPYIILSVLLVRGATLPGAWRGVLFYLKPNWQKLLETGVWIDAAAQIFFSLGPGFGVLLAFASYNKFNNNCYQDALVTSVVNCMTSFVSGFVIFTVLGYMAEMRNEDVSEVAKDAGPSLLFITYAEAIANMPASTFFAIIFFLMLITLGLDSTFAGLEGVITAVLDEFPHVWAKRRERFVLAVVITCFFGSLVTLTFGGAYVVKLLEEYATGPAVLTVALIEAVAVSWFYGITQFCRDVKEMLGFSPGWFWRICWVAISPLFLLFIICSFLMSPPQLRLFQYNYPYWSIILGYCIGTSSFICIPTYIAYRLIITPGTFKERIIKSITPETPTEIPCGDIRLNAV
T2 sequence (Q01959 whole entry): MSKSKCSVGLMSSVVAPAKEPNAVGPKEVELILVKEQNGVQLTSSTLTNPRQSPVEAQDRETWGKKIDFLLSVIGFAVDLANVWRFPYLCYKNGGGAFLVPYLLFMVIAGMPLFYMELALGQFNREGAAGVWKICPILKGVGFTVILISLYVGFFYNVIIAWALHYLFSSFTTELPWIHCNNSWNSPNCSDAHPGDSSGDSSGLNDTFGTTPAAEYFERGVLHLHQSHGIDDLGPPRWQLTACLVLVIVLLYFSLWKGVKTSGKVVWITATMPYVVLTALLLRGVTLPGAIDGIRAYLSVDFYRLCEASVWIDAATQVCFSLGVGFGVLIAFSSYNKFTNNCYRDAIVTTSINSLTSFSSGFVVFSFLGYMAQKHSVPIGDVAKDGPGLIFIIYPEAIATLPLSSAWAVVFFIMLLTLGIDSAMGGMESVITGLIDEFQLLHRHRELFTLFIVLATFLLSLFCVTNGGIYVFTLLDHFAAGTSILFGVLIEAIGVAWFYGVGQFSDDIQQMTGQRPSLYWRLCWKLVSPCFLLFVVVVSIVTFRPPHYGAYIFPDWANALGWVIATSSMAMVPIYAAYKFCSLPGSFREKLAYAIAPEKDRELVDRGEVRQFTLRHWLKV
T4 sequence (Q63380 1-617): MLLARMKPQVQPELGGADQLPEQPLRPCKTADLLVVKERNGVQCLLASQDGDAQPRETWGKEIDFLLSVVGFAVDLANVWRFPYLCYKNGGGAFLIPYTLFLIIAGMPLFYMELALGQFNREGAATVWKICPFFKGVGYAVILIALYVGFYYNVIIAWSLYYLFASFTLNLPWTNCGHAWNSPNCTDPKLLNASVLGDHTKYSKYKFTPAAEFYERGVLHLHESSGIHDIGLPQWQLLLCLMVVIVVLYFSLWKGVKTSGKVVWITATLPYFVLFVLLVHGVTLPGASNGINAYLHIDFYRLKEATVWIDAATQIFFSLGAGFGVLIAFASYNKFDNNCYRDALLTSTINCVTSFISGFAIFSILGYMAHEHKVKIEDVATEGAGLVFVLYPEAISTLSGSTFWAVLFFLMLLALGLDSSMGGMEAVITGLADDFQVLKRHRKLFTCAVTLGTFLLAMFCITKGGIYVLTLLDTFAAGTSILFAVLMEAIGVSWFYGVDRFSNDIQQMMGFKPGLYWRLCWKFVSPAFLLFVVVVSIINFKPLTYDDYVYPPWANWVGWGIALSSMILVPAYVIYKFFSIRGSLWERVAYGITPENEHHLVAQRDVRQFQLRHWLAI

Turning to `CCCC(Cc1ccccc1C)N1CCCC1` (centres unmarked) [2-Methylprolintane, 1-[1-(2-methylphenyl)pentan-2-yl]pyrrolidine], the results for the IC50 on rDAT, at hDAT and at rNET were 324 ± 25 nM, 185 ± 65 nM and 138 ± 13 nM, respectively. Besides, the DAT/SERT ratio on rDAT came out at 1; on hDAT, 23. The “Mean of normalized currents elicited through hSERT by drug application” value on hSERT is recorded as 0.386.

Regarding `CCCC(Cc1cccc(F)c1)N1CCCC1` (centres unmarked) [3-Fluoroprolintane, 1-[1-(3-fluorophenyl)pentan-2-yl]pyrrolidine], the values for the IC50 against rDAT, against hDAT and at rNET were 58 ± 4 nM, 64 ± 20 nM and 28 ± 3 nM, respectively. Further, the DAT/SERT ratio at rDAT worked out at 9; at hDAT, 210. The “Mean of normalized currents elicited through hSERT by drug application” value at hSERT was determined as 0.306.

`CCCC(Cc1ccccc1)N1CCCC1` (centres unmarked) [Prolintane, 1-(1-phenylpentan-2-yl)pyrrolidine]: the values for the concentration for half-maximal inhibition (IC50) at rDAT, against hDAT and at rNET were 61 ± 6 nM, 43 ± 24 nM and 39 ± 4 nM, respectively. Also, the DAT/SERT ratio was 38 at rDAT and 670 at hDAT. The “Mean of normalized currents elicited through hSERT by drug application” value at hSERT worked out at 0.2567. The hSERT-mediated current entry on hSERT (prolintane 30 µM, after 5-HT washout (Fig. S2)) is on record as “elicited an inward current”.

Turning to `CCCC(Cc1ccc(C)cc1)N1CCCC1` (centres unmarked) [4-Methylprolintane, 1-[1-(4-methylphenyl)pentan-2-yl]pyrrolidine], the IC50 (in general, the midpoint of a concentration-inhibition curve) against rDAT amounted to 37 ± 3 nM; at hDAT, 16 ± 2 nM; against rNET, 45 ± 5 nM. The DAT/SERT ratio is given as 1.9 at rDAT and 159 on hDAT. Further, at hDAT (pyrovalerone value ref 53), the “inhibitory potency at hDAT compared to pyrovalerone” value was “four-fold greater”. In addition, the “Mean of normalized currents elicited through hSERT by drug application” value on hSERT was found to be 0.21.

In the case of `CCCC(Cc1cccc(C)c1)N1CCCC1` (centres unmarked) [3-Methylprolintane, 1-[1-(3-methylphenyl)pentan-2-yl]pyrrolidine], the IC50 against rDAT came out at 111 ± 8 nM; against hDAT, 56 ± 11 nM; against rNET, 62 ± 9 nM. Also, the values for the DAT/SERT ratio on rDAT and at hDAT were 1.25 and 53, respectively. Besides, at hSERT, the “Mean of normalized currents elicited through hSERT by drug application” value amounted to 0.354.

Regarding `CCCC(Cc1ccccc1F)N1CCCC1` (centres unmarked) [2-Fluoroprolintane, 1-[1-(2-fluorophenyl)pentan-2-yl]pyrrolidine], the figures for the IC50 at rDAT, at hDAT and against rNET were 117 ± 10 nM, 109 ± 19 nM and 63 ± 6 nM, respectively. The DAT/SERT ratio turned out to be 19 at rDAT and 323 at hDAT. At hSERT, the “Mean of normalized currents elicited through hSERT by drug application” value turned out to be 0.28.

Consider `CCCC(Cc1ccc(F)cc1)N1CCCC1` (centres unmarked) [4-Fluoroprolintane, 1-[1-(4-fluorophenyl)pentan-2-yl]pyrrolidine], for which the values for the half-inhibitory concentration (IC50) against rDAT, against hDAT and at rNET were 213 ± 13 nM, 109 ± 41 nM and 217 ± 21 nM, respectively. Further, the figures for the DAT/SERT ratio at rDAT and at hDAT were 4.2 and 179, respectively. Moreover, the “Mean of normalized currents elicited through hSERT by drug application” value on hSERT came to 0.3167.
